{
  "source": "patent US7767789B2",
  "about": "“Truncated proteins as cancer markers” (University Hopitals of Cleveland, priority 2005, dated 2010)",
  "key": {"[1]": {"test_system": "HEK-293 cells expressing P2X7 or P2X7-j", "assay": "Cell selection: growth with BzATP and immunoblot of P2X7/P2X7-j protein, HEK-293", "type": "cell-based, human", "method": "Growth of various cell lines expressing P2X7 and/or P2X7-j in the presence or absence of BzATP was performed to determine how P2X7 receptors may affect cell selection over time. FIG. 23. HEK-293 cells expressing P2X7, HEK-293 cells expressing P2X7-j, or HeLa cells, which express both P2X7 and P2X7-j were separately grown in culture, in the presence or absence of 50 micromolar BzATP for seven (7) days. At various time points, samples of the cells were taken and examined for expression of P2X7 and/or P2X7-j protein by immunoblotting using a P2X7-specific antibody. This antibody was obtained from Alomone Labs (Jerusalem, Israel) and was reactive with the extracellular domain of P2X7 protein. Amino acids 136-152 of the mouse P2X7 receptor ([…]; (SEQ ID NO:7)) were used as the antigen to prepare the antibody. A labeled secondary antibody was used to visualize reactive protein bands. By layering equal amounts of total protein (15 micrograms) it was possible to compare the relative expression of the P2X7 and/or P2X7-j proteins by the cells."}, "[2]": {"molecular_target": "T1, P2X7-mediated pore (MDCK cells expressing P2X7 or P2X7-j) (Homo sapiens, UniProt Q99572, R270H/Y155H)", "T1 construct": "expressed in transfected cells; host or cells: MDCK (canine kidney), doxycycline-inducible promoter", "T1 sequence (Q99572 whole entry Y155H/R270H)": "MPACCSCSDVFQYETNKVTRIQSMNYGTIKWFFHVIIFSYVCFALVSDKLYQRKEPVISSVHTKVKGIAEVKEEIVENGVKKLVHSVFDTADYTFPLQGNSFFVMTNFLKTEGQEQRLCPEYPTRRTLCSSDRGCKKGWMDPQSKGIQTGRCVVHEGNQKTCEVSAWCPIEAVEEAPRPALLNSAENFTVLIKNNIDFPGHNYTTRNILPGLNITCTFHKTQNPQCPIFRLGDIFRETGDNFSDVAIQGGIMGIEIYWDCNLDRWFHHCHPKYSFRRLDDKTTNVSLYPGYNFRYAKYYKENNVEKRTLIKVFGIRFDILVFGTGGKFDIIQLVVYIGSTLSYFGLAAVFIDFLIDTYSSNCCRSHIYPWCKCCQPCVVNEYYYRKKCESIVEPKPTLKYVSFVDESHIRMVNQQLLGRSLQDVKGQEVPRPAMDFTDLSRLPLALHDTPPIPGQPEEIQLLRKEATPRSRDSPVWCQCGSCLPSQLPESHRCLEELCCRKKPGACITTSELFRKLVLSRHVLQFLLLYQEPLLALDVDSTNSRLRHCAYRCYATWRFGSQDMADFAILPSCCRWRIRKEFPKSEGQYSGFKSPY", "assay": "BzATP-stimulated pore activation (ethidium bromide entry), MDCK cells", "type": "cell-based", "conditions": "doxycycline-treated MDCK-P2X7 cells; BzATP 100 micromolar", "method": "(§1) BzATP-stimulated pore activation of P2X7 and P2X7-j receptor proteins was also determined. FIG. 13. MDCK cells or HEK-293 cells expressing either P2X7 or P2X7-j were treated with BzATP in the presence of ethidium bromide. Fluorescence of ethidium bromide was measured after BzATP activation (100 micromolar) as a measure of ethidium bromide entry into the cells via the P2X7-mediated pore. Results in seven Panels (A-G) each composed of 30 exposures of cells placed on a glass slide. The direction of the pictures in each Panel is left to right, and then up-down. […] FIG. 13, Panel B and Panel F, respectively.\n(§2) A quantification of the changes in ethidium bromide signaling from experiments similar to those in FIG. 13 was then calculated. FIG. 14."}, "[3]": {"molecular_target": "T2, P2X7-mediated pore (MDCK cells expressing P2X7 or P2X7-j) (Homo sapiens, UniProt Q99572, Y155H)", "T2 construct": "expressed in transfected cells; host or cells: MDCK (canine kidney), doxycycline-inducible promoter", "T2 sequence (Q99572 1-258 isoform Q99572-9 Y155H)": "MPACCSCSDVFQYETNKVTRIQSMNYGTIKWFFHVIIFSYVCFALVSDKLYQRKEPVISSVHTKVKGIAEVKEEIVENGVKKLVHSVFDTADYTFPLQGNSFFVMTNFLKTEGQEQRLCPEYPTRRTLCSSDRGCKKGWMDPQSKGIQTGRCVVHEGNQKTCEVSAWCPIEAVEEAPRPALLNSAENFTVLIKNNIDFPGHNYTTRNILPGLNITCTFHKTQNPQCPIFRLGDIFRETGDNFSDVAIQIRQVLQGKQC", "assay": "BzATP-stimulated pore activation (ethidium bromide entry), MDCK cells", "type": "cell-based", "conditions": "doxycycline-treated MDCK-P2X7-j cells compared to MDCK-P2X7 cells", "method": "as §1, §2"}, "[4]": {"molecular_target": "T3, P2X7-mediated pore (HEK-293 cells expressing P2X7 or P2X7-j) (Homo sapiens, UniProt Q99572, R270H/Y155H)", "T3 construct": "expressed in transfected cells; host or cells: HEK-293", "T3 sequence (Q99572 whole entry Y155H/R270H)": "as the sequence (Q99572 whole entry Y155H/R270H) above", "type": "cell-based", "conditions": "HEK-293-P2X7 cells; BzATP 100 micromolar"}, "[5]": {"molecular_target": "T4, P2X7-mediated pore (HEK-293 cells expressing P2X7 or P2X7-j) (Homo sapiens, UniProt Q99572, Y155H)", "T4 construct": "expressed in transfected cells; host or cells: HEK-293", "T4 sequence (Q99572 1-258 isoform Q99572-9 Y155H)": "as the sequence (Q99572 1-258 isoform Q99572-9 Y155H) above", "type": "cell-based", "conditions": "HEK-293-P2X7-j cells compared to HEK-293-P2X7 cells"}, "[6]": {"test_system": "P2X7-mediated pore (HEK-293 cells expressing P2X7 or P2X7-j)", "type": "cell-based, human", "conditions": "P2X7 plus P2X7-j HEK-293 cells compared to P2X7 HEK-293 cells"}, "[7]": {"molecular_target": "T5, full-length human P2X7 receptor (HEK-293-hP2X7-R cells) (Homo sapiens, UniProt Q99572)", "T5 construct": "For transfections, the full length human P2X7 receptor; expressed in transfected cells; host or cells: HEK-293, pcDNA-6 vector", "T5 sequence (Q99572 1-595)": "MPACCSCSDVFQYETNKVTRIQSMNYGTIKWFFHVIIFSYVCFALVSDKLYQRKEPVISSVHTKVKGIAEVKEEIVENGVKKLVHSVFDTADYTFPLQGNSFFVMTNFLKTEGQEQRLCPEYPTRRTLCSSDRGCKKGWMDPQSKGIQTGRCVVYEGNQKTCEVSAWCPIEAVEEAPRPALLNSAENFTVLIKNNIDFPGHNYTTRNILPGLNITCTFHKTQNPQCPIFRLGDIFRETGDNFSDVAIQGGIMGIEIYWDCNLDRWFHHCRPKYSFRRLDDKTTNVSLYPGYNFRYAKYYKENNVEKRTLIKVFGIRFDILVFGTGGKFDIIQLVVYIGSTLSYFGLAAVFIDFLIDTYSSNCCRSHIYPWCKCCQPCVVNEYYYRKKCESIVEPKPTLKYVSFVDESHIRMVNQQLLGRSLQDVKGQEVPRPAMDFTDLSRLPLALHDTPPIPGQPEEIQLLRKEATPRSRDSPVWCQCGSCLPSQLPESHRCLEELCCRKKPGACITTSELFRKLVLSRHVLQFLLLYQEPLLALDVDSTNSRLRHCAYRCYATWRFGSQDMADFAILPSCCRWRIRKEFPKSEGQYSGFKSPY", "assay": "Ethidium bromide influx in HEK-293-hP2X7-R and wild-type HEK293 cells on filters", "type": "cell-based"}, "[8]": {"test_system": "β-arrestin-2-GFP in CaSki cells", "assay": "Real-time confocal microscopy of β-arrestin-2-GFP, CaSki cells", "type": "cell-based, human", "conditions": "CaSki transfected with β-arrestin-2-GFP; not shown", "method": "CaSki cells transfected with the β-arrestin-2-GFP, or HEK-293 cells co-transfected with the full-length human P2X7-receptor and the β-arrestin-2-GFP were plated on 35-mm glass-bottom culture dishes (MatTek Corporation, Ashland, MA). Dishes contained a centered, 1 cm well formed from a glass coverslip sealed hole in the plastic. Two hours before experiments the medium was replaced with serum-free medium supplemented with 10 mM HEPES. The distribution of the β-arrestin-2-GFP was visualized before and after treatment with the agonist by real-time confocal microscopy. Imaging of the β-arrestin-2-GFP fluorescence in the same cells was performed on a Zeiss laser-scanning confocal microscope (LSM-510) using a heated (37° C.) microscope stage. Barak et al., “A beta-arrestin/green fluorescent protein biosensor for detecting G protein-coupled receptor activation” J Biol Chem 272:27497-27500 (1997).\nImages were collected sequentially before and after treatment with agonist for 0-30 min at 37° C. using single line excitation (488 nm)."}},
  "data": [
    {"substance": "2′-3′-O-(4-benzoylbenzoyl)adenosine 5′-triphosphate [BzATP]", "values": [
      {"measurement": "expression of the P2X7-j protein", "setting": "[1]; HEK-293 cells expressing P2X7-j, continuous 50 micromolar BzATP", "result": "did not decrease the expression of the P2X7-j protein"},
      {"measurement": "expression of the P2X7 protein", "setting": "[1]; HEK-293 cells expressing P2X7, 50 micromolar BzATP, each day up to 7 days", "result": "less than in cells not treated with BzATP"},
      {"measurement": "ethidium bromide signaling (pore)", "setting": "[2]", "result": "increased ethidium bromide signaling"},
      {"measurement": "ethidium bromide signaling response to BzATP", "setting": "[3]", "result": "significantly smaller"},
      {"measurement": "ethidium bromide signaling (pore)", "setting": "[4]", "result": "increased ethidium bromide signaling"},
      {"measurement": "ethidium bromide signaling response to BzATP", "setting": "[5]", "result": "significantly smaller"},
      {"measurement": "ethidium bromide response to BzATP", "setting": "[6]", "result": "significantly smaller"},
      {"measurement": "influx of ethidium bromide", "setting": "[7]", "result": "influx of ethidium bromide"},
      {"measurement": "re-distribution of GFP fluorescence towards cell periphery", "setting": "[8]", "result": "A similar effect was observed"}
    ]}
  ]
}
